Measurements published in patent US4778816A, “Anti-asthmatic composition and process for preparing the same” (Wakamoto Pharmaceutical Co., Ltd., priority 1984, dated 1988).

Columns and labels:
release of SRS-A [1] = experiment: Inhibitory effect on the release of SRS-A from guinea pig lung slices (Test Example 1); type: cell-based; conditions: for SRS-A release-inhibition rate: average of three measurements
release of histamine [2] = experiment: Inhibitory effect on the release of histamine from rhesus monkey lung slices (Test Example 2); type: cell-based; conditions: average of three measurements
Description: (§1) Inhibitory effect of MTB on the release of histamine and SRS-A from rhesus monkey lung slices
(§2) Rhesus monkey lungs were cut into slices, which were passively sensitized with human atopy blood serum.
(§3) Thereafter the test was conducted in the same manner as in Test Example 1 to compare the histamine and SRS-A release-inhibition effect of the present medicine MTB with that of the known medicine DSCG.

release of SRS-A [3] = experiment: Inhibitory effect on the release of SRS-A from rhesus monkey lung slices (Test Example 2); type: cell-based; conditions: average of three measurements
Description: as §1, §2, §3

release of histamine [4] = experiment: Inhibitory effect on the release of histamine from human lung slices (Test Example 3); type: cell-based; conditions: average of three measurements
Description: (§4) Inhibitory effect of MTB on the release of histamine and SRS-A from human lung slices
(§5) A macrographically normal portion was sampled from a human lung excised in a lung cancer operation and was passively sensitized with human atopy blood serum in a similar manner to the case of the rhesus monkey lung slices mentioned above. Thereafter the histamine and SRS-A release-inhibiting effect of the test medicines was measured in the same manner as in Test Example 1.

release of SRS-A [5] = experiment: Inhibitory effect on the release of SRS-A from human lung slices (Test Example 3); type: cell-based; conditions: average of three measurements
Description: as §4, §5

release of histamine [6] = experiment: Inhibitory effect on the release of histamine from guinea pig lung slices (Test Example 1); type: cell-based; conditions: for Histamine release-inhibition rate: average of three measurements
experimental asthma = experiment: Effect of preventing experimental asthma (Test Example 4); type: in vivo, guinea pig; conditions: 250 mg/kg oral; for Tidal volume-decrease rate: 60 min before causing asthma, average of seven
[7] = Differential thermal scanning calorimeter measurement of crystal structure; type: physicochemical; conditions: DSC 30 type, Shimadzu
From the text: From this observation, it has been confirmed that the treatment with the non-aqueous solvent in the new preparation process not only increases the mixing efficiency but also brings about a change in the crystal structure itself of MTB.

release of histamine [8] = conditions: Japanese Journal of Pharmacology, Vol. 32, pages 689-697, 1982; cited from earlier work
Acute toxicity in rat = experiment: Acute toxicity in rat; parameters: species or system Rat (wistar); conditions: in vivo, read-out: Acute toxicity LD 50
From the text: (§6) Animals tested were as follows.
Rat: wistar, weight 110-130 g 10 rats per group

Acute toxicity in dog = type: in vivo, Dog (beagle); conditions: in vivo, po; dog male, p.o.; read-out: Acute toxicity LD 50
From the text: as §6
(§7) Dog: beagle, weight 8 kg, 3 dogs per group

Dog = experiment: Acute toxicity in dog; type: in vivo, Dog (beagle); conditions: dog female, p.o.
From the text: as §6, §7

[9] = Solubility of MTB original powder in water; type: physicochemical
Acute toxicity in mouse = experiment: Acute toxicity in mouse; parameters: species or system Mouse (ddy); conditions: in vivo, read-out: Acute toxicity LD 50
From the text: as §6
Mouse: ddy, weight 20-23 g, 20 mice per group

For `O=C(O)c1cc(=O)c2c(OCC(O)COc3cccc4oc(C(=O)O)cc(=O)c34)cccc2o1` [DSCG, disodium cromoglicate, reference compound], the SRS-A release-inhibition rate (release of SRS-A [1]; 10^-4 g/ml) was 13%, the SRS-A release-inhibition rate (release of SRS-A [1]; 10^-5 g/ml) was 9% and the Histamine release-inhibition rate (release of histamine [2]; 10^-4 g/ml) was 0%. It also gave a Histamine release-inhibition rate (release of histamine [2]; 10^-5 g/ml) of 0%, an SRS-A release-inhibition rate (release of SRS-A [3]; 10^-4 g/ml) of 2% and an SRS-A release-inhibition rate (release of SRS-A [3]; 10^-5 g/ml) of 0%. It also gave a Histamine release-inhibition rate (release of histamine [4]; 10^-4 g/ml) of 18%, a Histamine release-inhibition rate (release of histamine [4]; 10^-5 g/ml) of 13% and an SRS-A release-inhibition rate (release of SRS-A [5]; 10^-4 g/ml) of 39%. It also gave an SRS-A release-inhibition rate (release of SRS-A [5]; 10^-5 g/ml) of 41%, a Histamine release-inhibition rate (release of histamine [6]; 10^-4 g/ml) of 2% and a Histamine release-inhibition rate (release of histamine [6]; 10^-5 g/ml) of 0%.
For `CCCCOC(=O)C(=O)Nc1cccc(-c2nnn[nH]2)c1` [MTB, 5-(3-n-butyloxalyl-aminophenyl) tetrazole], the “SRS-A release-inhibition rate compared with DSCG and N-5' (in words)” value (release of SRS-A [1]) was “remarkably high”, the SRS-A release-inhibition rate (release of SRS-A [1]; 10^-4 g/ml) was 64% and the SRS-A release-inhibition rate (release of SRS-A [1]; 10^-5 g/ml) was 66%. It also gave an SRS-A release-inhibition rate (release of SRS-A [1]; 10^-6 g/ml) of 49%, an SRS-A release-inhibition rate (release of SRS-A [1]; 10^-7 g/ml) of 28% and an SRS-A release-inhibition rate (release of SRS-A [1]; 10^-8 g/ml) of 2%. The Tidal volume-decrease rate (experimental asthma; 0 min) was 0%, the “decrease in unit tidal volume compared with control and N-5' (in words)” value (experimental asthma) was “remarkably low rate of decrease in unit tidal volume” and the Tidal volume-decrease rate (experimental asthma; 1 min) was 17%. For the same compound, the Tidal volume-decrease rate (experimental asthma; 2 min) was 17%, the Tidal volume-decrease rate (experimental asthma; 3 min) was 21% and the Tidal volume-decrease rate (experimental asthma; 4 min) was 23%. It also gave a Tidal volume-decrease rate (experimental asthma; 5 min) of 21%, a Tidal volume-decrease rate (experimental asthma; 6 min) of 22% and a Tidal volume-decrease rate (experimental asthma; 8 min) of 21%. It also gave a Tidal volume-decrease rate (experimental asthma; 10 min) of 21%, a Tidal volume-decrease rate (experimental asthma; 15 min) of 14% and a Tidal volume-decrease rate (experimental asthma; 20 min) of 19%. For the same compound, the Tidal volume-decrease rate (experimental asthma; 30 min) was 15%, the Histamine release-inhibition rate (release of histamine [2]; 10^-4 g/ml) was 27% and the Histamine release-inhibition rate (release of histamine [2]; 10^-5 g/ml) was 2%. The Histamine release-inhibition rate (release of histamine [2]; 10^-6 g/ml) was 12%, the Histamine release-inhibition rate (release of histamine [2]; 10^-7 g/ml) was 0% and the “peak of absorption indicating the crystal structure (DSC)” value [7] was “shows a peak of absorption indicating the crystal structure”. It also gave an SRS-A release-inhibition rate (release of SRS-A [3]; 10^-4 g/ml) of 16%, an SRS-A release-inhibition rate (release of SRS-A [3]; 10^-5 g/ml) of 17% and an SRS-A release-inhibition rate (release of SRS-A [3]; 10^-6 g/ml) of 18%. For the same compound, the SRS-A release-inhibition rate (release of SRS-A [3]; 10^-7 g/ml) was 0%, the “anti-allergic action (in words)” value (release of histamine [8]) was “anti-allergic action, inhibiting the release of histamine” and the Histamine release-inhibition rate (release of histamine [4]; 10^-4 g/ml) was 27%. The Histamine release-inhibition rate (release of histamine [4]; 10^-5 g/ml) was 23%, the Histamine release-inhibition rate (release of histamine [4]; 10^-6 g/ml) was 23% and the Histamine release-inhibition rate (release of histamine [4]; 10^-7 g/ml) was 8%. For the same compound, the Histamine release-inhibition rate (release of histamine [4]; 10^-8 g/ml) was 0%, the LD50 (Acute toxicity in rat; ip, rat female, i.p.) was 1430 mg/kg and the LD50 (Acute toxicity in rat; ip, rat male, i.p.) was 1430 mg/kg. It also gave an LD50 (Acute toxicity in rat; iv, rat female, i.v.) of 1160 mg/kg, an LD50 (Acute toxicity in rat; iv, rat male, i.v.) of 1110 mg/kg and an LD50 (Acute toxicity in rat; po, rat female, p.o.) of over 4000 mg/kg. It also gave an LD50 (Acute toxicity in rat; po, rat male, p.o.) of over 4000 mg/kg, an LD50 (Acute toxicity in rat; sc, rat female, s.c.) of over 4000 mg/kg and an LD50 (Acute toxicity in rat; sc, rat male, s.c.) of over 4000 mg/kg. The LD50 (Acute toxicity in dog) was over 4000 mg/kg, the “Acute toxicity LD 50” value (Dog) was over 4000 mg/kg and the “solubility in water (in words)” value [9] was “practically insoluble in water”. The SRS-A release-inhibition rate (release of SRS-A [5]; 10^-4 g/ml) was 47%, the SRS-A release-inhibition rate (release of SRS-A [5]; 10^-5 g/ml) was 47% and the SRS-A release-inhibition rate (release of SRS-A [5]; 10^-6 g/ml) was 43%. It also gave an SRS-A release-inhibition rate (release of SRS-A [5]; 10^-7 g/ml) of 31%, an SRS-A release-inhibition rate (release of SRS-A [5]; 10^-8 g/ml) of 2% and an LD50 (Acute toxicity in mouse; ip, mouse female, i.p.) of 1160 mg/kg. It also gave an LD50 (Acute toxicity in mouse; ip, mouse male, i.p.) of 1120 mg/kg, an LD50 (Acute toxicity in mouse; iv, mouse female, i.v.) of 1220 mg/kg and an LD50 (Acute toxicity in mouse; iv, mouse male, i.v.) of 1130 mg/kg. The LD50 (Acute toxicity in mouse; po, mouse female, p.o.) was over 4000 mg/kg, the LD50 (Acute toxicity in mouse; po, mouse male, p.o.) was over 4000 mg/kg and the LD50 (Acute toxicity in mouse; sc, mouse female, s.c.) was over 4000 mg/kg. For the same compound, the LD50 (Acute toxicity in mouse; sc, mouse male, s.c.) was over 4000 mg/kg, the “histamine release-inhibition rate compared with DSCG and N-5' (in words)” value (release of histamine [6]) was “remarkably high” and the Histamine release-inhibition rate (release of histamine [6]; 10^-4 g/ml) was 37%. It also gave a Histamine release-inhibition rate (release of histamine [6]; 10^-5 g/ml) of 30%, a Histamine release-inhibition rate (release of histamine [6]; 10^-6 g/ml) of 14% and a Histamine release-inhibition rate (release of histamine [6]; 10^-7 g/ml) of 6%. The Histamine release-inhibition rate (release of histamine [6]; 10^-8 g/ml) was 8%.
For `COc1ccc(/C=C/C(=O)Nc2ccccc2C(=O)O)cc1OC` [N-5', tranilast, reference compound], the SRS-A release-inhibition rate (release of SRS-A [1]; 10^-4 g/ml) was 54%, the SRS-A release-inhibition rate (release of SRS-A [1]; 10^-5 g/ml) was 11% and the Tidal volume-decrease rate (experimental asthma; 0 min) was 0%. For the same compound, the Tidal volume-decrease rate (experimental asthma; 1 min) was 26%, the Tidal volume-decrease rate (experimental asthma; 2 min) was 24% and the Tidal volume-decrease rate (experimental asthma; 3 min) was 24%. The Tidal volume-decrease rate (experimental asthma; 4 min) was 26%, the Tidal volume-decrease rate (experimental asthma; 5 min) was 23% and the Tidal volume-decrease rate (experimental asthma; 6 min) was 25%. For the same compound, the Tidal volume-decrease rate (experimental asthma; 8 min) was 28%, the Tidal volume-decrease rate (experimental asthma; 10 min) was 24% and the Tidal volume-decrease rate (experimental asthma; 15 min) was 27%. The Tidal volume-decrease rate (experimental asthma; 20 min) was 22%, the Tidal volume-decrease rate (experimental asthma; 30 min) was 19% and the Histamine release-inhibition rate (release of histamine [4]; 10^-4 g/ml) was 31%. For the same compound, the Histamine release-inhibition rate (release of histamine [4]; 10^-5 g/ml) was 16%, the SRS-A release-inhibition rate (release of SRS-A [5]; 10^-4 g/ml) was 37% and the SRS-A release-inhibition rate (release of SRS-A [5]; 10^-5 g/ml) was 32%. For the same compound, the Histamine release-inhibition rate (release of histamine [6]; 10^-4 g/ml) was 16% and the Histamine release-inhibition rate (release of histamine [6]; 10^-5 g/ml) was 5%.
